In the assay the target is T1, c-Src kinase (human) (Homo sapiens, UniProt P12931).
T1 construct: purchased Upstate Biotechnology, Lake Placid, N.Y
The experiment in a line: c-Src Kinase Assay. The format is biochemical. As to conditions: for inhibition at 2 µM / c-Src % Inhibition: test concentration of 2 μM, multiple values are separate assay results; for IC50: read-out: c-Src IC50 (in parentheses); for c-Src % Inhibition: 2 µM. A digest of the protocol:
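Inhibition was read as 33P incorporation, counted on P30 filtermats, after a 40 min, 30° C reaction. Human c-Src acted on 100 μM Cdc2 peptide with 5 μM ATP (final), pH 7.0 MOPS/MgCl2. Values are percent inhibition at 2 μM compound, or IC50 where determined.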

A value given as a limit tells only on which side of the number the result lay.

T1 sequence (P12931 whole entry): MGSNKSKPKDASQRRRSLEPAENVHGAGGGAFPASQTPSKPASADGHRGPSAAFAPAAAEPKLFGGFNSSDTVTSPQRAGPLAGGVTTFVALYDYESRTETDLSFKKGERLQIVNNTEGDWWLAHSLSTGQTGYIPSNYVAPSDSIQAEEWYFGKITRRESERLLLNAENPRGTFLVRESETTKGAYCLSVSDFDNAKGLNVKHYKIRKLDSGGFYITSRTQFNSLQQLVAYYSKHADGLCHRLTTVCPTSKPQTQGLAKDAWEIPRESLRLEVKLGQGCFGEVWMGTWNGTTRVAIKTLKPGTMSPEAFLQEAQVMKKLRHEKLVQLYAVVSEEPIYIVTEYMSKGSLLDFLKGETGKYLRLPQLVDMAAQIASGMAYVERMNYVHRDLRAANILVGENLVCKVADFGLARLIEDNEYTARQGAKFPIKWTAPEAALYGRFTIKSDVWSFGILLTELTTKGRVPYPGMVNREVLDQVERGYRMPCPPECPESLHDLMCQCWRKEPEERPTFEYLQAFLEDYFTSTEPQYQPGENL

With `O=C(Nc1ccc(N2CCOCC2)cc1)c1sc2ncnc3c2c1NC(=O)N3c1ccc2c(ccn2Cc2cccc(F)c2)c1` [Cpd 94, 5-[1-(3-fluoro-benzyl)-1H-indol-5-yl]-4-oxo-4,5-dihydro-3H-1-thia-3,5,6,8-tetraaza-acenaphthylene-2-carboxylic acid (4-morpholin-4-yl-phenyl)-amide], the inhibition at 2 µM was -39%.
Still for that read-out and setting: next, `Cc1ccc(Br)cc1N1C(=O)Nc2c(C(=O)Nc3ccc(CN4CCOCC4)cc3)sc3ncnc1c23` [Cpd 109, 5-(5-bromo-2-methyl-phenyl)-4-oxo-4,5-dihydro-3H-1-thia-3,5,6,8-tetraaza-acenaphthylene-2-carboxylic acid (4-morpholin-4-ylmethyl-phenyl)-amide]: 31%.
In the case of `O=C(O)c1sc2ncnc3c2c1NC(=O)N3c1ccc2c(cnn2Cc2cccc(F)c2)c1` [Cpd 79, 5-[1-(3-fluoro-benzyl)-1H-indazol-5-yl]-4-oxo-4,5-dihydro-3H-1-thia-3,5,6,8-tetraaza-acenaphthylene-2-carboxylic acid], the half-inhibitory concentration (IC50) was > 200 µM and the inhibition at 2 µM is -17%.
`O=C(Nc1ccc(CN2CCCCC2)cc1)c1sc2ncnc3c2c1NC(=O)N3c1ccc(OCc2ccccn2)c(Cl)c1` [Cpd 89, 5-[3-chloro-4-(pyridin-2-ylmethoxy)-phenyl]-4-oxo-4,5-dihydro-3H-1-thia-3,5,6,8-tetraaza-acenaphthylene-2-carboxylic acid (4-piperidin-1-ylmethyl-phenyl)-amide]: the inhibition at 2 µM is 44%.
Turning to `CCOC(=O)c1sc2ncnc3c2c1NC(=O)N3c1ccc2c(cnn2Cc2cccc(F)c2)c1` [Cpd 78, 5-[1-(3-fluoro-benzyl)-1H-indazol-5-yl]-4-oxo-4,5-dihydro-3H-1-thia-3,5,6,8-tetraaza-acenaphthylene-2-carboxylic acid ethyl ester], the IC50 was > 200 µM.
Regarding `COc1cc(N2C(=O)Nc3c(C(=O)Nc4ccc(CN5CCCC5)cc4)sc4ncnc2c34)c(Cl)cc1Cl` [Cpd 43, 5-(2,4-dichloro-5-methoxy-phenyl)-4-oxo-4,5-dihydro-3H-1-thia-3,5,6,8-tetraaza-acenaphthylene-2-carboxylic acid (4-pyrrolidin-1-ylmethyl-phenyl)-amide], the IC50 worked out at 4.15 µM and the inhibition at 2 µM turned out to be 53%.
With `CN1CCC(NC(=O)c2sc3ncnc4c3c2NC(=O)N4c2ccc3c(ccn3Cc3cccc(F)c3)c2)CC1` [Cpd 92, 5-[1-(3-fluoro-benzyl)-1H-indol-5-yl]-4-oxo-4,5-dihydro-3H-1-thia-3,5,6,8-tetraaza-acenaphthylene-2-carboxylic acid (1-methyl-piperidin-4-yl)-amide], the IC50 was found to be 0.431 µM, the inhibition at 2 µM is 65% and the “c-Src % Inhibition” value was found to be 45%.
For `O=C(Nc1ccc(CN2CCOCC2)cc1)c1sc2ncnc3c2c1NC(=O)N3c1ccc(Oc2ccc(F)cc2)cc1` [Cpd 110, 5-[4-(4-fluoro-phenoxy)-phenyl]-4-oxo-4,5-dihydro-3H-1-thia-3,5,6,8-tetraaza-acenaphthylene-2-carboxylic acid (4-morpholin-4-ylmethyl-phenyl)-amide], the inhibition at 2 µM turned out to be 16%.
Regarding `COc1ccc(Cl)c(N2C(=O)Nc3c(C(=O)Nc4ccc(CN5CCOCC5)cc4)sc4ncnc2c34)c1` [Cpd 51, 5-(2-chloro-5-methoxy-phenyl)-4-oxo-4,5-dihydro-3H-1-thia-3,5,6,8-tetraaza-acenaphthylene-2-carboxylic acid (4-morpholin-4-ylmethyl-phenyl)-amide], the IC50 turned out to be 6.58 µM and the inhibition at 2 µM was 33%.
For the compound `COc1ccc(Cl)c(N2C(=O)Nc3c(C(=O)Nc4ccc(OCCN5CCOCC5)c(OC)c4)sc4ncnc2c34)c1` [Cpd 50, 5-(2-chloro-5-methoxy-phenyl)-4-oxo-4,5-dihydro-3H-1-thia-3,5,6,8-tetraaza-acenaphthylene-2-carboxylic acid [3-methoxy-4-(2-morpholin-4-yl-ethoxy)-phenyl]-amide], the IC50 was 8.09 µM and the inhibition at 2 µM came out at 20%.
As to `CCOC(=O)c1sc2ncnc3c2c1NC(=O)N3c1cc(Br)ccc1C` [Cpd 103, 5-(5-bromo-2-methyl-phenyl)-4-oxo-4,5-dihydro-3H-1-thia-3,5,6,8-tetraaza-acenaphthylene-2-carboxylic acid ethyl ester], the inhibition at 2 µM came out at 14% and the “c-Src % Inhibition” value is recorded as 18%.
In the case of `O=C(Nc1ccc(CN2CCCCC2)cc1)c1sc2ncnc3c2c1NC(=O)N3c1ccc2c(ccn2Cc2cccc(F)c2)c1` [Cpd 87, 5-[1-(3-fluoro-benzyl)-1H-indol-5-yl]-4-oxo-4,5-dihydro-3H-1-thia-3,5,6,8-tetraaza-acenaphthylene-2-carboxylic acid (4-piperidin-1-ylmethyl-phenyl)-amide], the IC50 is > 200 µM.
Consider `O=C(Nc1ccc(CN2CCOCC2)cc1)c1sc2ncnc3c2c1NC(=O)N3c1c(Cl)ccc2c1OCO2` [Cpd 62, 5-(5-chloro-benzo[1,3]dioxol-4-yl)-4-oxo-4,5-dihydro-3H-1-thia-3,5,6,8-tetraaza-acenaphthylene-2-carboxylic acid (4-morpholin-4-ylmethyl-phenyl)-amide], for which the IC50 turned out to be 0.075 µM and the inhibition at 2 µM worked out at 83%.
For `COc1ccc(Cl)c(N2C(=O)Nc3c(C(=O)Nc4ccc(OC)c(OC)c4)sc4ncnc2c34)c1` [Cpd 49, 5-(2-chloro-5-methoxy-phenyl)-4-oxo-4,5-dihydro-3H-1-thia-3,5,6,8-tetraaza-acenaphthylene-2-carboxylic acid (3,4-dimethoxy-phenyl)-amide] the same measures were > 200 µM and 23%.
For `O=C(O)c1sc2ncnc3c2c1NC(=O)N3c1ccc2c(ccn2Cc2cccc(F)c2)c1` [Cpd 77, 5-[1-(3-fluoro-benzyl)-1H-indol-5-yl]-4-oxo-4,5-dihydro-3H-1-thia-3,5,6,8-tetraaza-acenaphthylene-2-carboxylic acid] the same measures were > 200 µM and 44%.
For `CN1CCN(Cc2ccc(NC(=O)c3sc4ncnc5c4c3NC(=O)N5c3ccc(OCc4ccccn4)c(Cl)c3)cc2)CC1` [Cpd 90, 5-[3-chloro-4-(pyridin-2-ylmethoxy)-phenyl]-4-oxo-4,5-dihydro-3H-1-thia-3,5,6,8-tetraaza-acenaphthylene-2-carboxylic acid [4-(4-methyl-piperazin-1-ylmethyl)-phenyl]-amide], the inhibition at 2 µM stood at 8% and the “c-Src % Inhibition” value was 4%.
For `COc1cc(NC(=O)c2sc3ncnc4c3c2NC(=O)N4c2ccc(Oc3ccccc3)cc2)ccc1OCCN1CCCCC1` [Cpd 100, 4-oxo-5-(4-phenoxy-phenyl)-4,5-dihydro-3H-1-thia-3,5,6,8-tetraaza-acenaphthylene-2-carboxylic acid [3-methoxy-4-(2-piperidin-1-yl-ethoxy)-phenyl]-amide], the IC50 was > 200 µM.
Same read-out and setting: to `O=C(Nc1ccc(CN2CCCCC2)cc1)c1sc2ncnc3c2c1NC(=O)N3c1ccc2c(cnn2Cc2cccc(F)c2)c1` [Cpd 80, 5-[1-(3-fluoro-benzyl)-1H-indazol-5-yl]-4-oxo-4,5-dihydro-3H-1-thia-3,5,6,8-tetraaza-acenaphthylene-2-carboxylic acid (4-piperidin-1-ylmethyl-phenyl)-amide] belongs > 200 µM.
For the compound `Cc1ccc(N2C(=O)Nc3c(C(=O)NC4CCN(C)CC4)sc4ncnc2c34)cc1Br` [Cpd 116, 5-(3-bromo-4-methyl-phenyl)-4-oxo-4,5-dihydro-3H-1-thia-3,5,6,8-tetraaza-acenaphthylene-2-carboxylic acid (1-methyl-piperidin-4-yl)-amide], the inhibition at 2 µM is -7%.
For the compound `O=C(Nc1ccc(CN2CCOCC2)cc1)c1sc2ncnc3c2c1NC(=O)N3c1c(Cl)cccc1Cl` [Cpd 104, 5-(2,6-dichloro-phenyl)-4-oxo-4,5-dihydro-3H-1-thia-3,5,6,8-tetraaza-acenaphthylene-2-carboxylic acid (4-morpholin-4-ylmethyl-phenyl)-amide], the IC50 is 1.84 µM, the inhibition at 2 µM was found to be 55% and the “c-Src % Inhibition” value is reported as 60%.
As for `COC(=O)c1sc2ncnc3c2c1NC(=O)N3c1c(Cl)ccc2c1OCO2` [Cpd 54, 5-(5-chloro-benzo[1,3]dioxol-4-yl)-4-oxo-4,5-dihydro-3H-1-thia-3,5,6,8-tetraaza-acenaphthylene-2-carboxylic acid methyl ester], the IC50 is 1.49 µM and the inhibition at 2 µM came out at 42%.
For the compound `O=C(Nc1ccc(CN2CCOCC2)cc1)c1sc2ncnc3c2c1NC(=O)N3c1ccc(Oc2ccccc2)c(F)c1` [Cpd 113, 5-(3-fluoro-4-phenoxy-phenyl)-4-oxo-4,5-dihydro-3H-1-thia-3,5,6,8-tetraaza-acenaphthylene-2-carboxylic acid (4-morpholin-4-ylmethyl-phenyl)-amide], the inhibition at 2 µM amounted to 68% and the “c-Src % Inhibition” value is given as 54%.
As for `O=C(NCCN1CCOCC1)c1sc2ncnc3c2c1NC(=O)N3c1ccc2c(ccn2Cc2cccc(F)c2)c1` [Cpd 93, 5-[1-(3-fluoro-benzyl)-1H-indol-5-yl]-4-oxo-4,5-dihydro-3H-1-thia-3,5,6,8-tetraaza-acenaphthylene-2-carboxylic acid (2-morpholin-4-yl-ethyl)-amide], the inhibition at 2 µM was 41%.
On the same count and under the same terms, next, `Cc1ccc(N2C(=O)Nc3c(C(=O)Nc4ccc(CN5CCOCC5)cc4)sc4ncnc2c34)cc1Br` [Cpd 108, 5-(3-bromo-4-methyl-phenyl)-4-oxo-4,5-dihydro-3H-1-thia-3,5,6,8-tetraaza-acenaphthylene-2-carboxylic acid (4-morpholin-4-ylmethyl-phenyl)-amide]: 19%.
Take `COc1cc(N2C(=O)Nc3c(C(=O)Nc4ccc(CN5CCN(C)CC5)cc4)sc4ncnc2c34)c(Cl)cc1Cl` [Cpd 60]: the concentration for half-maximal inhibition (IC50) was 7.94 µM and the inhibition at 2 µM was 38%.

(Values after patent US7579356B2, “Thia-tetraazaacenaphthylene kinase inhibitors” (Janssen Pharmaceutica NV, priority 2005, dated 2009).)
